Reference: patent US10206394B2, “Herbicidal compounds” (Syngenta Participations AG, priority 2014, dated 2019)
Where two headings read alike, the source gives them in different places.

Assays:
Type in all cases: in vivo
Lolium perenne (LOLPE) = assay: Glasshouse assay for herbicidal activity (pre- and post-emergence), percentage phytotoxicity; conditions: Lolium perenne
In short: (§1)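 Pot-grown, standard soil. PRE: spray 1 d post-sowing; POST: ~12 d. Glasshouse 24/18 °C (warm spp.) / 20/16 °C (cool spp.), 16 h light, 65% RH, watered 2×/day. Visual % damage, 20 DAA PRE, 15 DAA POST.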

[1] = tested on: Alopecurus myosuroides (ALOMY); assay: as above; conditions: Alopecurus myosuroides
In short: as §1

[2] = tested on: Echinochloa crus-galli (ECHCG); assay: as above; conditions: Echinochloa crus-galli
In short: as §1

Avena fatua (AVEFA) = assay: as above; conditions: Avena fatua
In short: as §1

[3] = tested on: Winter Wheat variety 'Hereward'; assay: Glasshouse assay for crop safety, post-emergence, +/- safener cloquintocet-mexyl (CQC), percentage phytotoxicity; conditions: 250 g/ha, evaluated after 13 days, 100=total damage, 0=no damage; for Post-emergence Crop Selectivity, percentage phytotoxicity, Wheat +CQC: with safener cloquintocet-mexyl (CQC) seed treatment 0.5 g/kg seed; for Post-emergence Crop Selectivity, percentage phytotoxicity, Wheat − CQC: without safener cloquintocet-mexyl (CQC)
Description: Test—Glasshouse Assay for Crop Safety.
Seeds of the Winter Wheat variety ‘Hereward’ were seed treated with a wettable powder formulation of the cereal herbicide safener, cloquintocet mexyl, at a rate of 0.5 grams per kilogram of dry seed prior to the initiation of glasshouse testing. Three seeds were sown per 1.5 inch plastic pot into a sandy loam soil at a depth of 1 cm, 8 days prior to application of the test compounds and was watered and grown under controlled conditions in a glasshouse (at 24/16° C., day/night; 14 hours light; 65% humidity). The plants were sprayed Post-emergence with an aqueous spray solution derived from the formulation of the technical active ingredient in acetone/water (50:50) solution containing 0.5% Tween 20 (polyoxyethelyene sorbitan monolaurate, CAS RN 9005-64-5).
The test plants were then grown in a glasshouse under controlled conditions (at 24/16° C., day/night; 14 hours light; 65% humidity) and watered twice daily. After 13 days for pre and post-emergence, the test was evaluated (100=total damage to plant; 0=no damage to plant).

[4] = post-emergence, 360 h, Rate 250 g/ha, post-emergence, assessed visually 15 DAA, 100%=total damage, 0%=no damage, read-out: Post-emergence herbicidal activity (percentage phytotoxicity) LOLPE POST
[5] = pre-emergence, 480 h, Rate 250 g/ha, pre-emergence, assessed visually 20 DAA, 100%=total damage, 0%=no damage, read-out: Pre-emergence herbicidal activity (percentage phytotoxicity) LOLPE PRE
[6] = post-emergence, 360 h, Rate 250 g/ha, post-emergence, assessed visually 15 DAA, 100%=total damage, 0%=no damage, read-out: Post-emergence herbicidal activity (percentage phytotoxicity) ALOMY POST
[7] = pre-emergence, 480 h, Rate 250 g/ha, pre-emergence, assessed visually 20 DAA, 100%=total damage, 0%=no damage, read-out: Pre-emergence herbicidal activity (percentage phytotoxicity) ALOMY PRE
[8] = post-emergence, 360 h, Rate 250 g/ha, post-emergence, assessed visually 15 DAA, 100%=total damage, 0%=no damage, read-out: Post-emergence herbicidal activity (percentage phytotoxicity) ECHCG POST
[9] = pre-emergence, 480 h, Rate 250 g/ha, pre-emergence, assessed visually 20 DAA, 100%=total damage, 0%=no damage, read-out: Pre-emergence herbicidal activity (percentage phytotoxicity) ECHCG PRE
[10] = post-emergence, 360 h, Rate 250 g/ha, post-emergence, assessed visually 15 DAA, 100%=total damage, 0%=no damage, read-out: Post-emergence herbicidal activity (percentage phytotoxicity) AVEFA POST
[11] = pre-emergence, 480 h, Rate 250 g/ha, pre-emergence, assessed visually 20 DAA, 100%=total damage, 0%=no damage, read-out: Pre-emergence herbicidal activity (percentage phytotoxicity) AVEFA PRE

Structure (SMILES)	pest or weed control at 250 g/ha (Lolium perenne (LOLPE); [4]) [%]	pest or weed control at 250 g/ha (Lolium perenne (LOLPE); [5]) [%]	pest or weed control at 250 g/ha [1, 6] [%]	pest or weed control at 250 g/ha [1, 7] [%]	pest or weed control at 250 g/ha [2, 8] [%]	pest or weed control at 250 g/ha [2, 9] [%]	pest or weed control at 250 g/ha (Avena fatua (AVEFA); [10]) [%]	pest or weed control at 250 g/ha (Avena fatua (AVEFA); [11]) [%]	Post-emergence Crop Selectivity, percentage phytotoxicity, Wheat +CQC [3] [%]	Post-emergence Crop Selectivity, percentage phytotoxicity, Wheat − CQC [3] [%]	pest or weed control at 250 g/ha (Lolium perenne (LOLPE); post-emergence, 360 h, post-emergence, 250 g/ha, 15 DAA, visual score (100%=total damage; 0%=no damage), read-out: LOLPE POST herbicidal activity (percentage phytotoxicity)) [%]	pest or weed control at 250 g/ha (Lolium perenne (LOLPE); pre-emergence, 480 h, pre-emergence, 250 g/ha, 20 DAA, visual score (100%=total damage; 0%=no damage), read-out: LOLPE PRE herbicidal activity (percentage phytotoxicity)) [%]	pest or weed control at 250 g/ha ([1]; post-emergence, 360 h, post-emergence, 250 g/ha, 15 DAA, visual score (100%=total damage; 0%=no damage), read-out: ALOMY POST herbicidal activity (percentage phytotoxicity)) [%]	pest or weed control at 250 g/ha ([1]; pre-emergence, 480 h, pre-emergence, 250 g/ha, 20 DAA, visual score (100%=total damage; 0%=no damage), read-out: ALOMY PRE herbicidal activity (percentage phytotoxicity)) [%]	pest or weed control at 250 g/ha ([2]; post-emergence, 360 h, post-emergence, 250 g/ha, 15 DAA, visual score (100%=total damage; 0%=no damage), read-out: ECHCG POST herbicidal activity (percentage phytotoxicity)) [%]	pest or weed control at 250 g/ha ([2]; pre-emergence, 480 h, pre-emergence, 250 g/ha, 20 DAA, visual score (100%=total damage; 0%=no damage), read-out: ECHCG PRE herbicidal activity (percentage phytotoxicity)) [%]	pest or weed control at 250 g/ha (Avena fatua (AVEFA); post-emergence, 360 h, post-emergence, 250 g/ha, 15 DAA, visual score (100%=total damage; 0%=no damage), read-out: AVEFA POST herbicidal activity (percentage phytotoxicity)) [%]	pest or weed control at 250 g/ha (Avena fatua (AVEFA); pre-emergence, 480 h, pre-emergence, 250 g/ha, 20 DAA, visual score (100%=total damage; 0%=no damage), read-out: AVEFA PRE herbicidal activity (percentage phytotoxicity)) [%]
Cc1cc(-c2ccc(F)cn2)cc(C)c1C1C(=O)CC(CC(=O)NC(C)(C)C)C1=O (stereo not drawn) [Compound A80]	100	100	100	100	100	100	100	90	20	70	–	–	–	–	–	–	–	–
Cc1cc(-c2ccc(Cl)cn2)cc(C)c1C1C(=O)CC(CC(=O)NCc2cccc(C(F)(F)F)c2)C1=O (stereo not drawn) [Compound A146]	100	90	100	80	100	90	100	90	50	80	–	–	–	–	–	–	–	–
Cc1cc(C)c(C2C(=O)CC(CC(=O)NC3CCCC3)C2=O)c(C)c1 (stereo not drawn) [Compound A21]	80	80	80	70	80	80	70	50	0	60	–	–	–	–	–	–	–	–
CCC(C)NC(=O)CC1CC(=O)C(c2c(C)cc(C)cc2C)C1=O (stereo not drawn) [Compound A3]	90	100	90	100	90	100	90	90	10	60	–	–	–	–	–	–	–	–
CC#Cc1cc(C)c(C2C(=O)CC(CC(=O)NCC(=O)C(C)(C)C)C2=O)c(C)c1 (stereo not drawn) [Compound A59]	70	70	90	100	90	90	90	70	50	80	–	–	–	–	–	–	–	–
CCNC(=O)CC1CC(=O)C(c2c(C)cc(C)cc2C)C1=O (stereo not drawn) [Compound A20]	100	100	80	70	100	100	80	70	20	40	–	–	–	–	–	–	–	–
Cc1cc(-n2cc(Cl)cn2)cc(C)c1C1C(=O)CC(CC(=O)NC(C)(C)C)C1=O (stereo not drawn) [Compound A67, N-tert-butyl-2-[3-[4-(4-chloropyrazol-1-yl)-2,6-dimethyl-phenyl]-2,4-dioxo-cyclopentyl]acetamide]	70	90	80	100	100	90	80	90	0	70	–	–	–	–	–	–	–	–
C=CCNC(=O)CC1CC(=O)C(c2c(C)cc(C)cc2C)C1=O (stereo not drawn) [Compound A175]	–	–	–	–	–	–	–	–	–	–	90	100	80	80	90	90	90	70
